Source: ChEMBL document CHEMBL1201862, “PubChem BioAssay data set” (2004)
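Each compound was tested at five concentrations against cells in 96-well plates for 48 hours. At the GI50, growth is halved.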 The source made the active and inactive calls. Rule as the data show it: active = GI50 up to about 1.1 µM and inactive = higher.

Legend:
Experiment in all cases: NCI-60 cell line screen, 48 h
A498 = system: A498
A549 = system: A549
ACHN = system: ACHN
CCRF-CEM = system: CCRF-CEM
COLO 205 = system: COLO 205
DLD-1 = system: DLD-1
DMS-273 = system: DMS-273
EKVX = system: EKVX
HCC 2998 = system: HCC 2998
HCT-116 = system: HCT-116
HCT-15 = system: HCT-15
HL-60 = system: HL-60
HOP-62 = system: HOP-62
HOP-92 = system: HOP-92
HT-29 = system: HT-29
IGROV-1 = system: IGROV-1
K562 = system: K562
KM-20L2 = system: KM-20L2
KM12 = system: KM12
LOX IMVI = system: LOX IMVI
LXFL 529 = system: LXFL 529
M14 = system: M14
M19-MEL = system: M19-MEL
MOLT-4 = system: MOLT-4
Malme-3M = system: Malme-3M
NCI-H226 = system: NCI-H226
NCI-H23 = system: NCI-H23
NCI-H460 = system: NCI-H460
NCI-H522 = system: NCI-H522
OVCAR-3 = system: OVCAR-3
OVCAR-4 = system: OVCAR-4
OVCAR-5 = system: OVCAR-5
OVCAR-8 = system: OVCAR-8
RXF 393 = system: RXF 393
SF-268 = system: SF-268
SF-295 = system: SF-295
SF-539 = system: SF-539
SK-MEL-28 = system: SK-MEL-28
SK-MEL-2 = system: SK-MEL-2
SK-MEL-5 = system: SK-MEL-5
SK-OV-3 = system: SK-OV-3
SN12C = system: SN12C
SNB-19 = system: SNB-19
SNB-75 = system: SNB-75
SNB-78 = system: SNB-78
SR = system: SR
SW-620 = system: SW-620
TK-10 = system: TK-10
U-251 = system: U-251
UACC-257 = system: UACC-257
UACC-62 = system: UACC-62
XF498 = system: XF498
786-0 = system: 786-0
CAKI-1 = system: CAKI-1
DMS-114 = system: DMS-114
RPMI-8226 = system: RPMI-8226
UO-31 = system: UO-31

Nc1nc(SCCC/C=C/B(O)O)nc2c1ncn2C1OC(CO)C(O)C1O (stereo unspecified)
GI50 (A498): > 243 µM (inactive)
GI50 (A549): > 243 µM (inactive)
GI50 (ACHN): > 243 µM (inactive)
GI50 (CCRF-CEM): > 243 µM (inactive)
GI50 (COLO 205): > 243 µM (inactive)
GI50 (DLD-1): > 243 µM (inactive)
GI50 (DMS-273): > 243 µM (inactive)
GI50 (EKVX): > 243 µM (inactive)
GI50 (HCC 2998): > 243 µM (inactive)
GI50 (HCT-116): > 243 µM (inactive)
GI50 (HCT-15): > 243 µM
GI50 (HL-60): > 243 µM (inactive)
GI50 (HOP-62): > 243 µM (inactive)
GI50 (HOP-92): > 243 µM (inactive)
GI50 (HT-29): > 243 µM (inactive)
GI50 (IGROV-1): > 243 µM (inactive)
GI50 (K562): > 243 µM (inactive)
GI50 (KM-20L2): > 243 µM (inactive)
GI50 (KM12): > 243 µM (inactive)
GI50 (LOX IMVI): > 243 µM (inactive)
GI50 (LXFL 529): > 243 µM (inactive)
GI50 (M14): > 243 µM (inactive)
GI50 (M19-MEL): > 243 µM (inactive)
GI50 (MOLT-4): > 243 µM (inactive)
GI50 (Malme-3M): > 243 µM (inactive)
GI50 (NCI-H226): > 243 µM (inactive)
GI50 (NCI-H23): > 243 µM (inactive)
GI50 (NCI-H460): > 243 µM (inactive)
GI50 (NCI-H522): > 243 µM (inactive)
GI50 (OVCAR-3): > 243 µM (inactive)
GI50 (OVCAR-4): > 243 µM (inactive)
GI50 (OVCAR-5): > 243 µM (inactive)
GI50 (OVCAR-8): > 243 µM (inactive)
GI50 (RXF 393): > 243 µM (inactive)
GI50 (SF-268): > 243 µM (inactive)
GI50 (SF-295): > 243 µM (inactive)
GI50 (SF-539): > 243 µM (inactive)
GI50 (SK-MEL-28): > 243 µM (inactive)
GI50 (SK-MEL-2): > 243 µM (inactive)
GI50 (SK-MEL-5): > 243 µM (inactive)
GI50 (SK-OV-3): > 243 µM (inactive)
GI50 (SN12C): > 243 µM (inactive)
GI50 (SNB-19): > 243 µM (inactive)
GI50 (SNB-75): > 243 µM (inactive)
GI50 (SNB-78): > 243 µM (inactive)
GI50 (SR): > 243 µM (inactive)
GI50 (SW-620): > 243 µM (inactive)
GI50 (TK-10): > 243 µM (inactive)
GI50 (U-251): > 243 µM (inactive)
GI50 (UACC-257): > 243 µM (inactive)
GI50 (UACC-62): > 243 µM (inactive)
GI50 (XF498): > 243 µM (inactive)

O=C1C2=C(N[C@@H](c3ccccc3)[C@H](c3ccccc3)N2)C(=O)c2ccccc21
GI50 (786-0): 76.4 µM (inactive)
GI50 (A498): > 100 µM (inactive)
GI50 (A549): > 100 µM (inactive)
GI50 (ACHN): > 100 µM (inactive)
GI50 (CAKI-1): > 100 µM (inactive)
GI50 (CCRF-CEM): > 100 µM (inactive)
GI50 (DLD-1): > 100 µM (inactive)
GI50 (DMS-114): > 100 µM (inactive)
GI50 (DMS-273): > 100 µM (inactive)
GI50 (HCC 2998): > 100 µM (inactive)
GI50 (HCT-116): > 100 µM (inactive)
GI50 (HCT-15): > 100 µM
GI50 (HL-60): > 100 µM (inactive)
GI50 (HOP-62): > 100 µM (inactive)
GI50 (HOP-92): 8.05 µM (inactive)
GI50 (HT-29): > 100 µM (inactive)
GI50 (IGROV-1): > 100 µM (inactive)
GI50 (K562): > 100 µM (inactive)
GI50 (KM12): > 100 µM (inactive)
GI50 (LOX IMVI): > 100 µM (inactive)
GI50 (LXFL 529): > 100 µM (inactive)
GI50 (M14): > 100 µM (inactive)
GI50 (M19-MEL): > 100 µM (inactive)
GI50 (MOLT-4): > 100 µM (inactive)
GI50 (Malme-3M): > 100 µM (inactive)
GI50 (NCI-H226): > 100 µM (inactive)
GI50 (NCI-H23): > 100 µM (inactive)
GI50 (NCI-H460): > 100 µM (inactive)
GI50 (NCI-H522): > 100 µM (inactive)
GI50 (OVCAR-3): > 100 µM (inactive)
GI50 (OVCAR-4): > 100 µM (inactive)
GI50 (OVCAR-5): > 100 µM (inactive)
GI50 (OVCAR-8): > 100 µM (inactive)
GI50 (RPMI-8226): > 100 µM (inactive)
GI50 (RXF 393): > 100 µM (inactive)
GI50 (SF-268): > 100 µM (inactive)
GI50 (SF-295): > 100 µM (inactive)
GI50 (SF-539): > 100 µM (inactive)
GI50 (SK-MEL-28): > 100 µM (inactive)
GI50 (SK-MEL-2): > 100 µM (inactive)
GI50 (SK-MEL-5): > 100 µM (inactive)
GI50 (SK-OV-3): > 100 µM (inactive)
GI50 (SN12C): > 100 µM (inactive)
GI50 (SNB-19): > 100 µM (inactive)
GI50 (SNB-75): 51.8 µM (inactive)
GI50 (SNB-78): > 100 µM (inactive)
GI50 (SR): > 100 µM (inactive)
GI50 (SW-620): > 100 µM (inactive)
GI50 (TK-10): > 100 µM (inactive)
GI50 (U-251): > 100 µM (inactive)
GI50 (UACC-257): > 100 µM (inactive)
GI50 (UACC-62): > 100 µM (inactive)
GI50 (UO-31): > 100 µM (inactive)
GI50 (XF498): > 100 µM (inactive)
